Tested on: CHD
Test: Meta-analysis of CARE and WOSCOPS combined, synergy index, CHD endpoint
Assay type: in vivo, human
Source text: Tables 4-5 provide meta-analyses of CARE and WOSCOPS combined (2nd section of each table) for two endpoints (CHD and CVD) and three genetic models (dominant, recessive, and additive), as well as logistic regression analyses of CARE (3rd section of each table) and WOSCOPS (4th section of each table) individually.
Tables 12 and 17 provide results of meta-analysis of the CARE and WOSCOPS sample sets combined by direct genotyping and by imputing genotypes.
“P” indicates the p-value, and “P(R)” (or “P.R.”) indicates the p-value random effect. Both of these are p-values corresponding to a statistical test of whether the combined synergy index is equal to one but use different assumptions to derive the p-value. “P” is calculated using a fixed effects model, and “P(R)” is calculated using a random effects model.
“OR” indicates the odds ratio (synergy index) calculated from a fixed effects model, and “OR(R)” (or “OR.R.”) indicates the odds ratio (synergy index) calculated from a random effects model.

[1] = rs10105871 allele C DOMINANT Imputed
[2] = rs10116807 allele A GENOTYPIC Imputed
[3] = rs11178575 allele C GENOTYPIC Imputed
[4] = rs11178575 allele C RECESSIVE Imputed
[5] = rs11178577 allele T GENOTYPIC Imputed
[6] = rs11178577 allele T RECESSIVE Imputed
[7] = rs11178583 allele A DOMINANT Imputed
[8] = rs11178589 allele T DOMINANT Imputed
[9] = rs11178594 allele C DOMINANT Imputed
[10] = rs11178602 allele T DOMINANT Imputed
[11] = rs11178648 allele T DOMINANT Imputed
[12] = rs11198877 allele T DOMINANT Imputed
[13] = rs11198942 allele T DOMINANT Imputed
[14] = rs11221075 allele A ADDITIVE Imputed
[15] = rs11242020 allele T DOMINANT Imputed
[16] = rs11242021 allele T DOMINANT Imputed
[17] = rs11242022 allele T DOMINANT Imputed
[18] = rs11242023 allele T DOMINANT Imputed
[19] = rs11576627 allele T ADDITIVE Imputed
[20] = rs11576627 allele T DOMINANT Imputed
[21] = rs11602189 allele A DOMINANT Imputed
[22] = rs11605163 allele A DOMINANT Imputed
[23] = rs11615214 allele G ADDITIVE Imputed
[24] = rs11615214 allele G GENOTYPIC Imputed
[25] = rs11642394 allele C DOMINANT Imputed
[26] = rs11644943 allele A ADDITIVE Imputed
[27] = rs11656608 allele T DOMINANT Imputed
[28] = rs11661309 allele A ADDITIVE Imputed
[29] = rs11661309 allele A DOMINANT Imputed
[30] = rs11666131 allele A ADDITIVE Imputed
[31] = rs11743355 allele C ADDITIVE Imputed
[32] = rs11743355 allele C DOMINANT Imputed
[33] = rs11746806 allele T ADDITIVE Imputed
[34] = rs11746806 allele T DOMINANT Imputed
[35] = rs11746959 allele T ADDITIVE Imputed
[36] = rs11746959 allele T DOMINANT Imputed
[37] = rs11749272 allele T DOMINANT Imputed
[38] = rs11901899 allele A DOMINANT Imputed
[39] = rs11926319 allele G ADDITIVE Imputed
[40] = rs11926319 allele G DOMINANT Imputed
[41] = rs11956952 allele C DOMINANT Imputed
[42] = rs12025826 allele G DOMINANT Imputed
[43] = rs12153185 allele T DOMINANT Imputed
[44] = rs12182651 allele T ADDITIVE Imputed
[45] = rs12182651 allele T DOMINANT Imputed
[46] = rs12193568 allele G DOMINANT Imputed
[47] = rs12264914 allele C DOMINANT Imputed
[48] = rs12307767 allele C DOMINANT Imputed
[49] = rs12407412 allele C ADDITIVE Imputed
[50] = rs12407412 allele C DOMINANT Imputed
[51] = rs12420184 allele G DOMINANT Imputed
[52] = rs12422750 allele A DOMINANT Imputed
[53] = rs12446951 allele A ADDITIVE Imputed
[54] = rs12446951 allele A DOMINANT Imputed
[55] = rs12457400 allele G DOMINANT Imputed
[56] = rs12521291 allele G ADDITIVE Imputed
[57] = rs12526849 allele T ADDITIVE Imputed
[58] = rs12526849 allele T GENOTYPIC Imputed
[59] = rs12543110 allele G DOMINANT Imputed
[60] = rs12678600 allele A DOMINANT Imputed
[61] = rs12719415 allele T DOMINANT Imputed
[62] = rs12831292 allele G DOMINANT Imputed

## CC[C@H](C)C(=O)O[C@H]1C[C@H](O)C=C2C=C[C@H](C)[C@H](CC[C@@H](O)C[C@@H](O)CC(=O)O)[C@H]21 [Pravastatin, pravastatin]
rs10067895 allele A DOMINANT Imputed
  OR(R): 0.5759
rs10088505 allele A vs G (ref)
  Meta-analysis OR: 1.61
rs10088524, allele A1 G (non-ref), A2 A (ref), endpoint/model not given
  Meta-analysis OR: 1.57
rs10103297, allele A1 A (non-ref), A2 G (ref), endpoint/model not given
  Meta-analysis OR: 2.03
[1]
  OR: 1.6092
  OR(R): 1.6092
[2]
  OR: 3.0952
  OR(R): 3.0952
rs10120126 allele G vs A (ref)
  Meta-analysis OR: 0.51
rs10189905 allele C vs A (ref)
  Meta-analysis OR: 0.52
rs10500736 allele G vs A (ref)
  Meta-analysis OR: 0.57
rs10517923 allele A vs G (ref)
  Meta-analysis OR: 1.61
rs10814422 allele G vs A (ref)
  Meta-analysis OR: 0.57
rs10849442 allele A vs G (ref)
  Meta-analysis OR: 0.57
rs10875941, allele A1 G (non-ref), A2 A (ref), endpoint/model not given
  Meta-analysis OR: 0.63
rs10973013 allele A vs G (ref)
  Meta-analysis OR: 0.55
rs11076320 allele C vs A (ref)
  Meta-analysis OR: 0.65
rs11082492 allele A vs C (ref)
  Meta-analysis OR: 1.55
[3]
  OR: 1.8735
  OR(R): 1.8735
[4]
  OR: 1.8848
  OR(R): 1.8848
[5]
  OR: 1.87
  OR(R): 1.87
[6]
  OR: 1.8884
  OR(R): 1.8884
[7]
  OR: 0.5918
  OR(R): 0.5918
[8]
  OR: 0.6108
  OR(R): 0.6108
[9]
  OR: 0.5951
  OR(R): 0.5951
[10]
  OR: 0.5942
  OR(R): 0.5942
[11]
  OR: 0.576
  OR(R): 0.576
[12]
  OR: 1.6068
  OR(R): 1.5927
[13]
  OR: 1.6276
  OR(R): 1.6227
[14]
  OR: 0.6561
  OR(R): 0.6561
[15]
  OR: 0.5675
  OR(R): 0.5675
[16]
  OR: 0.5753
  OR(R): 0.5753
[17]
  OR: 0.5805
  OR(R): 0.5805
[18]
  OR: 0.5807
  OR(R): 0.5807
[19]
  OR: 1.6268
  OR(R): 1.6268
[20]
  OR: 1.7055
  OR(R): 1.7055
[21]
  OR: 0.6007
  OR(R): 0.6007
[22]
  OR: 2.1075
  OR(R): 2.1075
[23]
  OR: 0.6853
  OR(R): 0.6853
[24]
  OR: 0.4648
  OR(R): 0.4738
[25]
  OR: 1.4572
  OR(R): 1.4572
[26]
  OR: 1.4247
  OR(R): 1.4247
[27]
  OR: 0.6695
  OR(R): 0.6695
[28]
  OR: 0.6163
  OR(R): 0.6163
[29]
  OR: 0.5852
  OR(R): 0.5852
[30]
  OR: 1.5364
  OR(R): 1.5364
[31]
  OR: 0.1796
  OR(R): 0.1796
[32]
  OR: 0.1817
  OR(R): 0.1817
[33]
  OR: 0.2206
  OR(R): 0.2206
[34]
  OR: 0.2253
  OR(R): 0.2253
[35]
  OR: 0.1976
  OR(R): 0.1976
[36]
  OR: 0.2007
  OR(R): 0.2007
[37]
  OR: 0.5734
  OR(R): 0.5734
[38]
  OR: 1.5824
  OR(R): 1.5824
rs11925875 allele A vs G (ref)
  Meta-analysis OR: 0.66
[39]
  OR: 0.4343
  OR(R): 0.4343
[40]
  OR: 0.4237
  OR(R): 0.4237
[41]
  OR: 0.6564
  OR(R): 0.6564
[42]
  OR: 1.5794
  OR(R): 1.5794
[43]
  OR: 0.5759
  OR(R): 0.5759
[44]
  OR: 2.1926
  OR(R): 2.1926
[45]
  OR: 2.4795
  OR(R): 2.4795
[46]
  OR: 1.7403
  OR(R): 1.8042
[47]
  OR: 0.6442
  OR(R): 0.6442
[48]
  OR: 0.6667
  OR(R): 0.6667
[49]
  OR: 1.6268
  OR(R): 1.6268
[50]
  OR: 1.7055
  OR(R): 1.7055
[51]
  OR: 0.5645
  OR(R): 0.5645
[52]
  OR: 0.6919
  OR(R): 0.6919
[53]
  OR: 2.3413
  OR(R): 2.3413
[54]
  OR: 2.3135
  OR(R): 2.3135
[55]
  OR: 0.5884
  OR(R): 0.5884
[56]
  OR: 0.6857
  OR(R): 0.6857
[57]
  OR: 1.4208
  OR(R): 1.4208
[58]
  OR: 2.0445
  OR(R): 2.0445
[59]
  OR: 1.6401
  OR(R): 1.6401
rs12556591 allele G vs A (ref)
  Meta-analysis OR: 0.59
rs12657484, allele A1 G (non-ref), A2 A (ref), endpoint/model not given
  Meta-analysis OR: 1.49
[60]
  OR: 0.6104
  OR(R): 0.6104
[61]
  OR: 0.5662
  OR(R): 0.5662
[62]
  OR: 0.5982
  OR(R): 0.5982
rs13279522 allele G vs A (ref)
  Meta-analysis OR: 0.62
rs13314266 allele G vs A (ref)
  Meta-analysis OR: 0.51
rs13318232 allele G vs A (ref)
  Meta-analysis OR: 0.52
rs16861467, allele A1 G (non-ref), A2 A (ref), endpoint/model not given
  Meta-analysis OR: 0.49
rs17076974 allele A vs G (ref)
  Meta-analysis OR: 1.40
rs17546598 allele A vs G (ref)
  Meta-analysis OR: 1.71
rs17706237 allele G vs A (ref)
  Meta-analysis OR: 1.69
rs17716275, allele A1 A (non-ref), A2 G (ref), endpoint/model not given
  Meta-analysis OR: 2.03
rs72746987 allele A vs G (ref)
  Meta-analysis OR: 0.40

— patent US10563263B2, “Genetic polymorphisms associated with statin response and cardiovascular diseases, methods of detection and uses thereof” (CELERA CORPORATION, priority 2010, dated 2020)
